Data set [1] relates to spring wheat (TRZAS). In words: Postemergence greenhouse trial, % visual injury on spring wheat. It is filed as in vivo, Triticum aestivum. As for the experimental part:
(§1) Seeds of the desired test plant species were planted in Sun Gro MetroMix® 306 planting mixture, which typically has a pH of 6.0 to 6.8 and an organic matter content of about 30 percent, in plastic pots with a surface area of 103.2 square centimeters (cm^2). When required to ensure good germination and healthy plants, a fungicide treatment and/or other chemical or physical treatment was applied. The plants were grown for 7-36 days (d) in a greenhouse with an approximate 14-hour (h) photoperiod which was maintained at about 23° C. during the day and 22° C. during the night. Nutrients and water were added on a regular basis and supplemental lighting was provided with overhead metal halide 1000-Watt lamps as necessary. The plants were employed for testing when they reached the second or third true leaf stage.
(§2) Weighed amounts of technical material were dissolved in a volume of 97:3 volume per volume (v/v) acetone/dimethyl sulfoxide (DMSO) to stock solutions. […] The concentrated stock solutions were diluted with an aqueous mixture of 1.5% v/v of Agri-dex crop oil concentrate to provide the appropriate application rates. Compound requirements are based upon a 12 milliliter (mL) application volume at a rate of 187 liters per hectare (L/ha). Stocks solutions of the safeners were prepared following the same procedure. Spray solutions of the safeners and experimental compound mixtures were prepared by adding the stock solutions to the appropriate amount of dilution solution to form a 12 mL spray solution in two-way combinations. Formulated compounds were applied to the plant material with an overhead Mandel track sprayer equipped with 8002E nozzles calibrated to deliver 187 L/ha over an application area of 0.503 square meters (m^2) at a spray height of 18 inches (43 centimeters (cm)) above average plant canopy. Control plants were sprayed in the same manner with the solvent blank. All herbicide application (component a) rates are in g ae/ha and all safener (component b) rates are in g ai/ha.
(§3) The treated plants and control plants were placed in a greenhouse as described above and watered by sub-irrigation to prevent wash-off of the test compounds. After 20-22 d, the condition of the test plants as compared with that of the control plants was determined visually and scored on a scale of 0 to 100 percent where 0 corresponds to no injury and 100 corresponds to complete kill. The condition of the test plants was compared with that of the control plants as determined visually and scored on a scale of 0 to 100 percent, where 0 corresponds to no injury and 100 corresponds to complete kill. Colby's equation was used to determine the herbicidal effects expected from the mixtures.
(§4) The safener cloquintocet-mexyl was combined with compound 1, compound 2, compound 4, compound 5, and compound 6, and applied to corn/maize (ZEAMX) and spring wheat (TRZAS) and the phytotoxicity of the herbicidal compositions was measured. In addition, the efficacy of the herbicidal composition on velvetleaf (ABUTH, Abutilon theophrasti), pigweed (AMARE, Amaranthus retroflexus), winter rape (BRSNW, Brassica napus), lambsquarters (CHEAL, Chenopodium album), thistle (CIRAR, Cirsium arvense), nutsedge (CYPES, Cyperus esculentus), poinsettia (EPHHL, Euphorbia heterophylla), wild buckwheat (POLCO, Polygonum convolvulus), giant foxtail (SETFA, Setaria faberi), and chickweed (STEME, Stellaria media) was evaluated.
(§5) The safener cloquintocet-mexyl was combined with compound 1, compound 2, compound 3, compound 7, compound 8, compound 9, compound 10, compound 11, compound 12, compound 13, compound 14, compound 15, compound 16, compound 17, compound 18, compound 19, and compound 20, and applied to spring wheat (TRZAS), winter wheat (TRZAW), and spring barley (HORVS) and the phytotoxicity of the herbicidal compositions was measured. […]

The subject of data set [2] is spring barley (HORVS). The experiment in a line: Postemergence greenhouse trial, % visual injury on spring barley. In kind it is in vivo, Hordeum vulgare. On the procedure: as §1, §2, §3, §5
For data set [3], the system named is pigweed (AMARE). The experiment in a line: Postemergence greenhouse trial, % visual injury on pigweed. It is filed as in vivo, Amaranthus retroflexus. The note with it: Amaranthus retroflexus, post-emergence, read-out: % visual injury, Ob. On the procedure: as §1, §2, §3
as §4, with “evaluated. […]” for “evaluated.”
The safener cloquintocet-acid and a number of agriculturally acceptable esters and salts (-mexyl, -dimethylammonium salt and -triethylammonium salt) were combined in varying ratios with compound 1 and applied to spring wheat (TRZAS), winter wheat (TRZAW), and spring barley (HORVS), and the phytotoxicity of the herbicidal compositions was measured. […]

Data set [4] concerns lambsquarters (CHEAL). In words: Postemergence greenhouse trial, % visual injury on lambsquarters. It is filed as in vivo, Chenopodium album. The note with it: Chenopodium album, post-emergence, read-out: % visual injury, Ob. On the procedure: as §1, §2, §3, §4, §5
The subject of data set [5] is kochia (KCHSC). In words: Postemergence greenhouse trial, % visual injury on kochia. It is filed as in vivo, Kochia scoparia. To be noted: Bassia scoparia, post-emergence, read-out: % visual injury, Ob; for pest or weed control at 4.375 g/ha / pest or weed control at 8.75 g/ha / pest or weed control at 17.5 g/ha / pest or weed control at 35 g/ha / pest or weed control at 70 g/ha: KCHSC, applied alone. On the procedure: as §1, §2
as §3, with “mixtures. […]” for “mixtures.”

The subject of data set [6] is common poppy (PAPRH). In words: Postemergence greenhouse trial, % visual injury on common poppy. The note with it: Papaver rhoeas, post-emergence, PAPRH, applied alone, read-out: % visual injury, Ob. In kind it is in vivo, Papaver rhoeas. As for the experimental part: as §1, §2
as §3, with “mixtures. […]” for “mixtures.”

Data set [7] has as its system winter rape (BRSNW). In words: Postemergence greenhouse trial, % visual injury on winter rape. In kind it is in vivo, Brassica napus. The note with it: Brassica napus, post-emergence, BRSNW, applied alone, read-out: % visual injury, Ob. As for the experimental part:
as §1, §2, §3
as §4, with “evaluated. […]” for “evaluated.”

The mark [8] stands for this setting: TRZAS, 4.375 g/ha, applied alone.
Setting [9] is: TRZAS, 8.75 g/ha, applied alone.
The mark [10] stands for this setting: TRZAS, 17.5 g/ha, applied alone.
Where [11] appears, read: HORVS, 4.375 g/ha, applied alone.
[12] abbreviates: HORVS, 8.75 g/ha, applied alone.
[13] abbreviates: HORVS, 17.5 g/ha, applied alone.

Consider `Nc1c(F)c(-c2ccc3cc[nH]c3c2F)nc(C(=O)[O-])c1Cl.[K+]` [compound 7], for which the “% visual injury, Ob” value in data set [1] (alone, 20 g/ha) was 10%; in data set [2] (alone, 20 g/ha) it was 5%. Besides, the results for the pest or weed control at 20 g/ha in data set [3], in data set [4] and in data set [5] were 88%, 90% and 65%, respectively.

On to `COC(=O)c1nc(-c2ccc3sccc3c2)c(F)c(N)c1Cl` [compound 18], for which the “% visual injury, Ob” value in data set [1] (setting [8]) is reported as 10%; in data set [1] (setting [9]) it was 25%; in data set [1] (setting [10]), 40%; in data set [1] (TRZAS, 35 g/ha, applied alone) it was 50%; in data set [1] (TRZAS, 70 g/ha, applied alone) it was 70%; in data set [2] (setting [11]), 15%. Further, the “% visual injury, Ob” value in data set [2] (setting [12]) was determined as 25%; in data set [2] (setting [13]) it was 40%; in data set [2] (HORVS, 35 g/ha, applied alone), 50%; in data set [2] (HORVS, 70 g/ha, applied alone) it was 70%. For the same compound, the pest or weed control at 4.375 g/ha in data set [5] stood at 30%; in data set [6], 90%. For the same compound, the results for the pest or weed control at 8.75 g/ha in data set [5] and in data set [6] were 40% and 90%, respectively. For the same compound, the pest or weed control at 17.5 g/ha in data set [5] is 75%; in data set [6] it was 93%. In addition, the pest or weed control at 35 g/ha in data set [5] and in data set [6] was 93% each time. In addition, the pest or weed control at 70 g/ha came to 90% in data set [5] and 95% in data set [6].

`COc1c(N)nc(-c2ccc3sccc3c2)nc1C(=O)O` [compound 19]: the “% visual injury, Ob” value is reported as 0% in data set [1] (setting [8]); 10% in data set [1] (setting [9]); 30% in data set [1] (setting [10]); 40% in data set [1] (TRZAS, 35 g/ha, applied alone); 50% in data set [1] (TRZAS, 70 g/ha, applied alone); 0% in data set [2] (setting [11]). Also, the “% visual injury, Ob” value is reported as 10% in data set [2] (setting [12]); 10% in data set [2] (setting [13]); 15% in data set [2] (HORVS, 35 g/ha, applied alone); 35% in data set [2] (HORVS, 70 g/ha, applied alone). Besides, in data set [7] (4.375 g/ha), the plant injury at 4.375 g/ha came to 0%. In addition, the plant injury at 8.75 g/ha in data set [7] (8.75 g/ha) is 10%. For the same compound, the plant injury at 17.5 g/ha in data set [7] (17.5 g/ha) turned out to be 20%. In data set [7] (35 g/ha), the plant injury at 35 g/ha came out at 25%. Moreover, in data set [7] (70 g/ha), the plant injury at 70 g/ha was 30%. For the same compound, the results for the pest or weed control at 4.375 g/ha in data set [5] and in data set [6] were 0% and 80%, respectively. In addition, the pest or weed control at 8.75 g/ha in data set [5] turned out to be 0%; in data set [6] it was 80%. For the same compound, the pest or weed control at 17.5 g/ha came to 0% in data set [5] and 85% in data set [6]. The pest or weed control at 35 g/ha in data set [5] was determined as 10%; in data set [6], 90%. The pest or weed control at 70 g/ha amounted to 60% in data set [5] and 95% in data set [6].
